From US20200339625A1, “NOVEL RADIOMETAL-BINDING COMPOUNDS FOR DIAGNOSIS OR TREATMENT OF PROSTATE SPECIFIC MEMBRANE ANTIGEN-EXPRESSING CANCER” (PROVINCIAL HEALTH SERVICES AUTHORITY, priority 2017, published 2020)

What was measured:
[1] = tested on: mice bearing LNCaP tumor xenografts; test: PET/CT imaging of 68Ga-labeled compounds; assay type: in vivo; conditions: for change of tumor uptake from 1 h to 3 h post-injection / excretion pathway: PET/CT images; for blood retention (qualitative): PET/CT images at 1 h and 3 h post-injection, comparison within the figure
How it was run: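 Male NOD SCID IL2Rγ KO mice bore subcutaneous LNCaP xenografts (1×10^7 cells, tumours 5-8 mm) and received 6-8 MBq tracer via tail vein under 2% isoflurane. At 50 min p.i., a 10-min CT and a 10-min static PET were acquired. For the 3 h time point, scanning began at 170 min p.i. with a 15-min static PET.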

[2] = tested on: mice bearing PSMA-expressing LNCAP cancer xenografts; test: Biodistribution of 68Ga-labeled compounds; assay type: in vivo
How it was run: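 NOD-SCID IL2RγKO male mice carried subcutaneous LNCaP xenografts grown to 5-8 mm over 5-6 weeks. Organs and blood were collected at 1 or 3 h after injection of the radiotracer and gamma-counted. Uptake was normalized to injected dose via a standard curve and expressed as %ID/g.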

`O=C([O-])CN1CCN(CC(=O)[O-])CCN(CC(=O)NCCCC[C@H](NC(=O)CNC(=O)CCCc2ccc(F)cc2)C(=O)NC[C@H]2CC[C@H](C(=O)N[C@@H](Cc3ccc4ccccc4c3)C(=O)NCCCC[C@H](NC(=O)N[C@@H](CCC(=O)O)C(=O)O)C(=O)O)CC2)CCN(CC(=O)[O-])CC1.[68Ga+3]` [^68Ga-HTK03085] was tested, and the “change of tumor uptake from 1 h to 3 h post-injection” value [1] was “increases over time”, the excretion pathway [1] was “excreted mainly by the renal pathway” and the “blood retention (qualitative)” value [1] was “significantly higher blood retention”. It also gave an Adrenal glands uptake ([2]; 1 h post-injection) of 3.57 ± 1.09 % ID/g, a Blood uptake ([2]; 1 h post-injection) of 5.73 ± 0.93 % ID/g and a Bone uptake ([2]; 1 h post-injection) of 0.34 ± 0.08 % ID/g. It also gave a Brain uptake ([2]; 1 h post-injection) of 0.08 ± 0.01 % ID/g, a Fat uptake ([2]; 1 h post-injection) of 1.36 ± 0.28 % ID/g and a Heart uptake ([2]; 1 h post-injection) of 1.46 ± 0.27 % ID/g. It also gave an Intestine uptake ([2]; 1 h post-injection) of 0.61 ± 0.10 % ID/g, a Kidneys uptake ([2]; 1 h post-injection) of 85.8 ± 8.36 % ID/g and a Lacrimal uptake ([2]; 1 h post-injection) of 0.11 ± 0.06 % ID/g. The Liver uptake ([2]; 1 h post-injection) was 1.01 ± 0.29 % ID/g, the Lungs uptake ([2]; 1 h post-injection) was 3.67 ± 0.72 % ID/g and the Muscle uptake ([2]; 1 h post-injection) was 0.58 ± 0.08 % ID/g. For the same compound, the Pancreas uptake ([2]; 1 h post-injection) was 0.86 ± 0.09 % ID/g, the Salivary uptake ([2]; 1 h post-injection) was 2.61 ± 0.59 % ID/g and the Seminal uptake ([2]; 1 h post-injection) was 1.42 ± 2.17 % ID/g. It also gave a Spleen uptake ([2]; 1 h post-injection) of 3.90 ± 1.57 % ID/g, a Stomach uptake ([2]; 1 h post-injection) of 0.24 ± 0.05 % ID/g and a Tail uptake ([2]; 1 h post-injection) of 1.79 ± 0.36 % ID/g. The Testes uptake ([2]; 1 h post-injection) was 1.03 ± 0.12 % ID/g, the Thyroid uptake ([2]; 1 h post-injection) was 1.70 ± 0.25 % ID/g and the Tumor uptake ([2]; 1 h post-injection) was 18.8 ± 3.35 % ID/g. For the same compound, the “Tumor:Blood ratio” value ([2]; 1 h post-injection) was 3.33 ± 0.75, the “Tumor:Muscle ratio” value ([2]; 1 h post-injection) was 33.2 ± 7.91 and the “Tumor:kidney ratio” value ([2]; 1 h post-injection) was 0.22 ± 0.03. It also gave a Urine uptake ([2]; 1 h post-injection) of 181 ± 97.2 % ID/g, an Adrenal glands uptake ([2]; 3 h post-injection) of 1.37 ± 0.48 % ID/g and a Blood uptake ([2]; 3 h post-injection) of 2.10 ± 0.48 % ID/g. It also gave a Bone uptake ([2]; 3 h post-injection) of 0.13 ± 0.04 % ID/g, a Brain uptake ([2]; 3 h post-injection) of 0.04 ± 0.01 % ID/g and a Fat uptake ([2]; 3 h post-injection) of 0.70 ± 0.13 % ID/g. The Heart uptake ([2]; 3 h post-injection) was 0.52 ± 0.09 % ID/g, the Intestine uptake ([2]; 3 h post-injection) was 0.39 ± 0.08 % ID/g and the Kidneys uptake ([2]; 3 h post-injection) was 63.4 ± 16.6 % ID/g. For the same compound, the Lacrimal uptake ([2]; 3 h post-injection) was 0.04 ± 0.07 % ID/g, the Liver uptake ([2]; 3 h post-injection) was 0.61 ± 0.08 % ID/g and the Lungs uptake ([2]; 3 h post-injection) was 1.50 ± 0.26 % ID/g. For the same compound, the Muscle uptake ([2]; 3 h post-injection) was 0.31 ± 0.08 % ID/g, the Pancreas uptake ([2]; 3 h post-injection) was 0.35 ± 0.09 % ID/g and the Salivary uptake ([2]; 3 h post-injection) was 1.03 ± 0.33 % ID/g. The Seminal uptake ([2]; 3 h post-injection) was 0.21 ± 0.08 % ID/g, the Spleen uptake ([2]; 3 h post-injection) was 1.05 ± 0.09 % ID/g and the Stomach uptake ([2]; 3 h post-injection) was 0.16 ± 0.09 % ID/g. It also gave a Tail uptake ([2]; 3 h post-injection) of 0.60 ± 0.15 % ID/g, a Testes uptake ([2]; 3 h post-injection) of 0.60 ± 0.09 % ID/g and a Thyroid uptake ([2]; 3 h post-injection) of 0.64 ± 0.10 % ID/g. For the same compound, the Tumor uptake ([2]; 3 h post-injection) was 28.9 ± 4.27 % ID/g, the “Tumor:Blood ratio” value ([2]; 3 h post-injection) was 14.2 ± 2.77 and the “Tumor:Muscle ratio” value ([2]; 3 h post-injection) was 95.8 ± 20.9. The “Tumor:kidney ratio” value ([2]; 3 h post-injection) was 0.48 ± 0.11 and the Urine uptake ([2]; 3 h post-injection) was 141 ± 54.3 % ID/g.

`COc1ccc(CCCC(=O)NCC(=O)N[C@@H](CCCCNC(=O)CN2CCN(CC(=O)[O-])CCN(CC(=O)[O-])CCN(CC(=O)[O-])CC2)C(=O)NC[C@H]2CC[C@H](C(=O)N[C@@H](Cc3ccc4ccccc4c3)C(=O)NCCCC[C@H](NC(=O)N[C@@H](CCC(=O)O)C(=O)O)C(=O)O)CC2)cc1.[68Ga+3]` [^68Ga-HTK03086] was tested, and the “change of tumor uptake from 1 h to 3 h post-injection” value [1] was “increases over time”, the excretion pathway [1] was “excreted mainly by the renal pathway” and the “blood retention (qualitative)” value [1] was “significantly higher blood retention”. For the same compound, the Adrenal glands uptake ([2]; 1 h post-injection) was 3.28 ± 0.54 % ID/g, the Blood uptake ([2]; 1 h post-injection) was 12.1 ± 0.60 % ID/g and the Bone uptake ([2]; 1 h post-injection) was 0.72 ± 0.19 % ID/g. The Brain uptake ([2]; 1 h post-injection) was 0.15 ± 0.01 % ID/g, the Fat uptake ([2]; 1 h post-injection) was 1.37 ± 0.17 % ID/g and the Heart uptake ([2]; 1 h post-injection) was 2.76 ± 0.25 % ID/g. It also gave an Intestine uptake ([2]; 1 h post-injection) of 0.91 ± 0.07 % ID/g, a Kidneys uptake ([2]; 1 h post-injection) of 54.7 ± 4.84 % ID/g and a Lacrimal uptake ([2]; 1 h post-injection) of 0.24 ± 0.05 % ID/g. The Liver uptake ([2]; 1 h post-injection) was 1.77 ± 0.27 % ID/g, the Lungs uptake ([2]; 1 h post-injection) was 5.43 ± 0.65 % ID/g and the Muscle uptake ([2]; 1 h post-injection) was 0.94 ± 0.02 % ID/g. For the same compound, the Pancreas uptake ([2]; 1 h post-injection) was 1.16 ± 0.11 % ID/g, the Salivary uptake ([2]; 1 h post-injection) was 2.51 ± 0.18 % ID/g and the Seminal uptake ([2]; 1 h post-injection) was 0.71 ± 0.10 % ID/g. The Spleen uptake ([2]; 1 h post-injection) was 2.18 ± 0.51 % ID/g, the Stomach uptake ([2]; 1 h post-injection) was 0.34 ± 0.04 % ID/g and the Tail uptake ([2]; 1 h post-injection) was 3.39 ± 0.59 % ID/g. It also gave a Testes uptake ([2]; 1 h post-injection) of 1.54 ± 0.18 % ID/g, a Thyroid uptake ([2]; 1 h post-injection) of 2.24 ± 0.15 % ID/g and a Tumor uptake ([2]; 1 h post-injection) of 17.8 ± 2.89 % ID/g. The “Tumor:Blood ratio” value ([2]; 1 h post-injection) was 1.47 ± 0.28, the “Tumor:Muscle ratio” value ([2]; 1 h post-injection) was 18.8 ± 2.968 and the “Tumor:kidney ratio” value ([2]; 1 h post-injection) was 0.32 ± 0.04. It also gave a Urine uptake ([2]; 1 h post-injection) of 82.9 ± 62.5 % ID/g, an Adrenal glands uptake ([2]; 3 h post-injection) of 1.80 ± 0.39 % ID/g and a Blood uptake ([2]; 3 h post-injection) of 6.60 ± 0.84 % ID/g. The Bone uptake ([2]; 3 h post-injection) was 0.33 ± 0.16 % ID/g, the Brain uptake ([2]; 3 h post-injection) was 0.09 ± 0.02 % ID/g and the Fat uptake ([2]; 3 h post-injection) was 0.95 ± 0.12 % ID/g. It also gave a Heart uptake ([2]; 3 h post-injection) of 1.53 ± 0.21 % ID/g, an Intestine uptake ([2]; 3 h post-injection) of 0.71 ± 0.07 % ID/g and a Kidneys uptake ([2]; 3 h post-injection) of 48.5 ± 10.7 % ID/g. For the same compound, the Lacrimal uptake ([2]; 3 h post-injection) was 0.07 ± 0.04 % ID/g, the Liver uptake ([2]; 3 h post-injection) was 1.40 ± 0.35 % ID/g and the Lungs uptake ([2]; 3 h post-injection) was 3.49 ± 0.64 % ID/g. It also gave a Muscle uptake ([2]; 3 h post-injection) of 0.57 ± 0.09 % ID/g, a Pancreas uptake ([2]; 3 h post-injection) of 0.70 ± 0.11 % ID/g and a Salivary uptake ([2]; 3 h post-injection) of 1.39 ± 0.13 % ID/g. For the same compound, the Seminal uptake ([2]; 3 h post-injection) was 0.47 ± 0.09 % ID/g, the Spleen uptake ([2]; 3 h post-injection) was 1.58 ± 0.37 % ID/g and the Stomach uptake ([2]; 3 h post-injection) was 0.27 ± 0.08 % ID/g. It also gave a Tail uptake ([2]; 3 h post-injection) of 1.50 ± 0.17 % ID/g, a Testes uptake ([2]; 3 h post-injection) of 1.30 ± 0.30 % ID/g and a Thyroid uptake ([2]; 3 h post-injection) of 1.39 ± 0.16 % ID/g. The Tumor uptake ([2]; 3 h post-injection) was 28.2 ± 5.44 % ID/g, the “Tumor:Blood ratio” value ([2]; 3 h post-injection) was 4.33 ± 1.06 and the “Tumor:Muscle ratio” value ([2]; 3 h post-injection) was 50.5 ± 13.5. The “Tumor:kidney ratio” value ([2]; 3 h post-injection) was 0.59 ± 0.10 and the Urine uptake ([2]; 3 h post-injection) was 1.30 ± 47.9 % ID/g.
